In paper PMC5511861, “DS16570511 is a small-molecule inhibitor of the mitochondrial calcium uniporter” (Cell Death Discovery, 2017):

Legend:
[1] = test system: mitochondrial Ca2+ levels in rat perfused heart; experiment: Mitochondrial Ca2+ overload in rat isolated perfused heart; conditions: 10 min pretreatment
Procedure: We investigated the effect of DS16570511 on mitochondrial Ca^2+ levels in a rat isolated perfused heart. In the normal condition of the perfusion assay, the Ca^2+ concentration of the perfusion buffer is 2.5 mM.[23] To induce mitochondrial Ca^2+ overload, Ca^2+ concentration in the perfusion buffer was increased from 2.5 mM to 5 mM or 7.5 mM.
Figure 6 DS16570511 inhibits mitochondrial Ca^2+ overload in isolated heart. Effect of DS16570511 on mitochondrial Ca^2+ levels in rat perfused heart. For induction of Ca^2+ overload in mitochondria ex vivo, Ca^2+ concentration was increased from 2.5 mM to 5 mM or 7.5 mM. The heart was treated with DS16570511 for 10 min before the high Ca^2+ treatment. Data are mean with S.E.M. from more than three independent samples.
(§1) The hearts were rapidly excised from 9-week-old male Wistar rats and perfused at 37 °C with Krebs-Ringer perfusion buffer (127.2 mM NaCl, 4.7 mM KCl, 2.5 mM CaCl2, 1.2 mM KH2PO4, 1.2 mM MgSO4, 25 mM NaHCO3 and 5.5 mM glucose (pH 7.4)) equilibrated with 95% O2/5% CO2. A balloon was inserted through the left atrium into the left ventricle. Heart rate and contractility were continuously recorded with a data acquisition system (PowerLab, ADInstruments, Bella Vista, NSW, Australia).

[2] = test system: Ca2+ uptake of pig heart mitochondria; experiment: Ca2+ uptake assay using isolated pig heart mitochondria (atomic absorbance spectrometer); type: biochemical; conditions: 100 μM CaCl2; read-out: IC50, inhibition of Ca2+ uptake of pig heart mitochondria
Procedure: We then asked whether DS16570511 inhibits Ca^2+ uptake in isolated mitochondria from animal heart. An atomic absorbance spectrometer-based detection method was employed to analyze intramitochondrial Ca^2+ levels. We prepared freshly isolated mitochondria from pig heart, and the mitochondria were incubated with 100 μM CaCl2.
(a) Effect of RuR on Ca^2+ uptake of pig heart mitochondria. […] Data are mean with S.E.M. from three independent samples. (b) Inhibition rate of RuR or DS16570511 on Ca^2+ uptake of pig heart mitochondria. Inhibition 0 or 100% is defined as a value of Ca^2+-untreated mitochondria or Ca^2+-treated mitochondria, respectively. Data are mean with S.E.M. from three independent samples. (c) Inhibition rate of RuR or DS16570511 on Ca^2+ uptake of rat heart mitochondria. Data are mean with S.E.M./variation from three or two independent samples for DS16570511 or RuR, respectively.
Mitochondria were isolated by using the mitochondria isolation kit and then dissolved in the swelling buffer. The protein concentration of the mitochondrial solution was 5 mg/ml. Thirty minutes after application of CaCl2 (final concentration of 100 μM) to the solution, the mitochondria were collected by centrifugation (3000 g) at 4 °C. The pellets were resuspended in the swelling buffer containing 1 μM RuR. After collection of the mitochondria by centrifugation (3000 g), the pellets were dried and dissolved by 40 μl of sulfuric acid at 95 °C.

[3] = test system: rat perfused heart; experiment: Cardiac functions (heart rate, contractility) in rat isolated perfused heart
Procedure: We then investigated the effect of DS16570511 on cardiac functions in the perfused heart. We observed that heart rate was unaffected by DS16570511 in the range of 3–30 μM (Figure 7a). […] The increase of contractility was diminished by washout of the drug (Figure 7b), showing that the cardiac effect of DS16570511 is reversible.
Figure 7 Effects of DS16570511 on cardiac functions. (a) Effect of DS16570511 on heart rate in rat perfused heart. Data are mean with S.E.M. from more than four independent samples. (b) Representative data showing acute and reversible effect of DS16570511 on contractility. (c) Effect of DS16570511 on contractility in rat perfused heart. Plotted are values of pretreatment and 5 min after treatment of 10 or 30 μM DS16570511.
as §1

[4] = molecular target: T1, mitochondrial calcium uniporter (Homo sapiens, UniProt Q8NE86); experiment: Ca2+ uptake of isolated mitochondria from HEK293A cells (aequorin luminescence); type: biochemical; parameters: isolated mitochondria from HEK293A cells were used; endogenous in cells; host or cells: mitochondria isolated from HEK293A cells stably expressing mitochondria-targeted aequorin; conditions: 100 μM Ca2+, 5 min preincubation; read-out: IC50, inhibition of Ca2+ uptake of isolated mitochondria from HEK293A cells
T1 sequence (Q8NE86 51-351): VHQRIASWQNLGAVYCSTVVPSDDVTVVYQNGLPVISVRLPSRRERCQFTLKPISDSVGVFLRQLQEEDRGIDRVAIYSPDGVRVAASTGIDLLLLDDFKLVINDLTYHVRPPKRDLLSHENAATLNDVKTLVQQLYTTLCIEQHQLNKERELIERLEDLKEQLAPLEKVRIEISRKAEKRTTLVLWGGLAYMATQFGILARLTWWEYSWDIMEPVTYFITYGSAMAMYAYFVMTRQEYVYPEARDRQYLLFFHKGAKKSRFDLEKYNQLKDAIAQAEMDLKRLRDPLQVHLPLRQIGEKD
T1 sequence (Q9H4I9 48-107 partner limits assumed): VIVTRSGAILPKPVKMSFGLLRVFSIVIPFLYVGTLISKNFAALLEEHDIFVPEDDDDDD
Procedure: Mitochondrial Ca^2+ uptake activity is regulated by cytosolic protein kinase signaling,[19] raising the possibility that HTS hits contained indirect inhibitors of the uniporter, such as inhibitors of cytosolic signaling. To examine the direct inhibitory effect of the compounds on the mitochondrial Ca^2+ uptake, isolated mitochondria from HEK293A cells were used. Ca^2+ uptake of the isolated mitochondria was observed as a rapid increase in the luminescence level after application of 100 μM Ca^2+ (Figure 2a).
Figure 2 DS16570511 inhibits Ca^2+ uptake in isolated mitochondria from HEK293A cells. (a) Representative raw data of Ca^2+ uptake in isolated mitochondria. (b) Effect of DS16570511 or Ru360 on mitochondrial Ca^2+ uptake. The area under the curve of temporal aequorin activities is used for calculation of inhibitory activities. Inhibition 0 or 100% is defined as a value of […], respectively. Data are mean with S.E.M. from three independent samples.
To monitor Ca^2+ uptake activity of isolated mitochondria, mitochondria were prepared from the cells (1×10^8 cells) stably expressing mitochondria-targeted aequorin by using a mitochondria isolation kit. […] The luminescence levels were detected as described above.

What does the source list for `Cc1onc(-c2c(Cl)cccc2Cl)c1CNc1cccc(C(=O)c2cn(CCCC(=O)O)c3ccccc23)c1` [DS16570511]?
effect on mitochondrial Ca2+ level, normal buffer ([1]; 2.5 mM Ca2+ buffer, 30 μM): no significant effect; effect on mitochondrial Ca2+ increase induced by 5.0 mM Ca2+ buffer ([1]; 5.0 mM Ca2+ buffer): blocked; effect on mitochondrial Ca2+ overload induced by 7.5 mM Ca2+ buffer ([1]; 7.5 mM Ca2+ buffer): dose-dependently inhibited; IC50 [2]: 15 µM; effect on heart rate ([3]; 3–30 μM): unaffected; effect on cardiac contractility ([3]; 10 or 30 μM, 5 min after treatment): increased cardiac contractility; reversibility of the cardiac effect on washout ([3]; washout of the drug): reversible; IC50 [4]: 0.86 µM
